Source: PubChem BioAssay (NCI)
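Cells were grown in 96-well plates and exposed to each compound for 48 hours at five concentrations; endpoints were interpolated linearly between bracketing concentrations, or set to the highest concentration if not reached. At the GI50, growth is halved. TGI denotes the concentration required for complete inhibition of growth.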

Experiments:
Assay in all cases: NCI-60 cell line screen, 48 h
[1] = system: 786-0 renal
[2] = system: A498 renal
[3] = system: A549 NSCLC
[4] = system: ACHN renal
[5] = system: CAKI-1 renal
[6] = system: CCRF-CEM leukemia
[7] = system: DU-145 prostate
[8] = system: EKVX NSCLC
[9] = system: HCC-2998 colon
[10] = system: HCT-116 colon
[11] = system: HCT-15 colon
[12] = system: HL-60(TB) leukemia
[13] = system: HOP-62 NSCLC
[14] = system: HOP-92 NSCLC
[15] = system: HS 578T breast
[16] = system: HT29 colon
[17] = system: IGROV1 ovarian
[18] = system: K-562 leukemia
[19] = system: KM12 colon
[20] = system: LOX IMVI melanoma
[21] = system: M14 melanoma
[22] = system: MALME-3M melanoma
[23] = system: MCF7 breast
[24] = system: MDA-MB-231 breast
[25] = system: MDA-MB-435
[26] = system: MDA-MB-468 breast
[27] = system: MOLT-4 leukemia
[28] = system: NCI-H226 lung
[29] = system: NCI-H23 lung
[30] = system: NCI-H460 lung
[31] = system: NCI-H522 lung
[32] = system: NCI/ADR-RES ovarian
[33] = system: OVCAR-3 ovarian
[34] = system: OVCAR-4 ovarian
[35] = system: OVCAR-5 ovarian
[36] = system: OVCAR-8 ovarian
[37] = system: PC-3 prostate
[38] = system: RPMI-8226 leukemia
[39] = system: RXF 393 renal
[40] = system: SF-268 CNS
[41] = system: SF-295 CNS
[42] = system: SF-539 CNS
[43] = system: SK-MEL-28 melanoma
[44] = system: SK-OV-3 ovarian
[45] = system: SN12C renal
[46] = system: SNB-19 CNS
[47] = system: SR leukemia
[48] = system: SW-620 colon
[49] = system: T-47D breast
[50] = system: TK-10 renal
[51] = system: U251 CNS
[52] = system: UACC-62 melanoma
[53] = system: UO-31 renal
[54] = system: BT-549 breast
[55] = system: COLO 205 colon
[56] = system: SK-MEL-2 melanoma
[57] = system: SK-MEL-5 melanoma
[58] = system: SNB-75 CNS
[59] = system: UACC-257 melanoma

## COc1ccc(NC(=O)Nc2nc3ccc([N+](=O)[O-])cc3s2)cc1
[1]
  GI50: 2.89 µM
  TGI: 11.6 µM
[2]
  GI50: 1.66 µM
  TGI: 4.83 µM
[3]
  GI50: 2.23 µM
  TGI: 6.22 µM
[4]
  GI50: 2.48 µM
  TGI: 7.09 µM
[5]
  GI50: 2.08 µM
  TGI: 5.01 µM
[6]
  GI50: 2.27 µM
  TGI: 7.69 µM
[7]
  GI50: 3.02 µM
  TGI: 11.4 µM
[8]
  GI50: 2.66 µM
  TGI: 7.96 µM
[9]
  GI50: 2.72 µM
  TGI: 9.54 µM
[10]
  GI50: 2.52 µM
  TGI: 7.67 µM
[11]
  GI50: 2.68 µM
  TGI: 10.4 µM
[12]
  GI50: 2.1 µM
  TGI: 5.84 µM
[13]
  GI50: 2.92 µM
  TGI: 10.7 µM
[14]
  GI50: 1.92 µM
  TGI: 5.97 µM
[15]
  GI50: 2.81 µM
  TGI: 8.21 µM
[16]
  GI50: 3.34 µM
  TGI: 14.8 µM
[17]
  GI50: 3.37 µM
  TGI: 15.3 µM
[18]
  GI50: 2.71 µM
  TGI: 13 µM
[19]
  GI50: 2.22 µM
  TGI: 5.92 µM
[20]
  GI50: 2.42 µM
  TGI: 6.18 µM
[21]
  GI50: 2.73 µM
  TGI: 9.02 µM
[22]
  GI50: 2.19 µM
  TGI: 6.21 µM
[23]
  GI50: 2.2 µM
  TGI: 6.31 µM
[24]
  GI50: 2.76 µM
  TGI: 7.86 µM
[25]
  GI50: 1.92 µM
  TGI: 5.68 µM
[26]
  GI50: 1660 nM
  TGI: 4.17 µM
[27]
  GI50: 2.71 µM
  TGI: 10.7 µM
[28]
  GI50: 2.31 µM
  TGI: 6.63 µM
[29]
  GI50: 2.22 µM
  TGI: 6.64 µM
[30]
  GI50: 2.37 µM
  TGI: 5.79 µM
[31]
  GI50: 1.72 µM
  TGI: 5.94 µM
[32]
  GI50: 2.62 µM
  TGI: 8.16 µM
[33]
  GI50: 2.15 µM
  TGI: 5.36 µM
[34]
  GI50: 2.84 µM
  TGI: 12.6 µM
[35]
  GI50: 2.8 µM
  TGI: 9.95 µM
[36]
  GI50: 3.18 µM
  TGI: 13.7 µM
[37]
  GI50: 2.15 µM
  TGI: 8.35 µM
[38]
  GI50: 1.83 µM
  TGI: 5.97 µM
[39]
  GI50: 2.54 µM
  TGI: 7.24 µM
[40]
  GI50: 2.91 µM
  TGI: 16.2 µM
[41]
  GI50: 1.9 µM
  TGI: 4.3 µM
[42]
  GI50: 2.41 µM
  TGI: 5.95 µM
[43]
  GI50: 3.09 µM
  TGI: 11.9 µM
[44]
  GI50: 2.37 µM
  TGI: 7.09 µM
[45]
  GI50: 2.66 µM
  TGI: 8.64 µM
[46]
  GI50: 2.85 µM
  TGI: 16.8 µM
[47]
  GI50: 2.52 µM
  TGI: 12.8 µM
[48]
  GI50: 3.07 µM
  TGI: 13.8 µM
[49]
  GI50: 1.67 µM
  TGI: 6.66 µM
[50]
  GI50: 3.66 µM
  TGI: 10.7 µM
[51]
  GI50: 2.24 µM
  TGI: 5.76 µM
[52]
  GI50: 2.63 µM
  TGI: > 100 µM
[53]
  GI50: 2.51 µM
  TGI: 8.98 µM

## O=C(c1ccc(Cl)cc1)C1[C@H](c2ccccc2Cl)[C@@H](c2ccccc2)NC12C(=O)Nc1ccccc12 (some centres undefined)
[1]
  GI50: 20.5 µM
  TGI: 51.6 µM
[2]
  GI50: 20.8 µM
  TGI: 60.1 µM
[3]
  GI50: 24.9 µM
  TGI: > 100 µM
[4]
  GI50: 20.9 µM
  TGI: 71.8 µM
[54]
  GI50: 16.2 µM
  TGI: 48.5 µM
[5]
  GI50: 18.9 µM
  TGI: > 100 µM
[6]
  GI50: 27.2 µM
  TGI: 95 µM
[55]
  GI50: 16.3 µM
  TGI: 29.9 µM
[7]
  GI50: 17.1 µM
  TGI: 51.2 µM
[8]
  GI50: 23.7 µM
  TGI: > 100 µM
[9]
  GI50: 19.1 µM
  TGI: 51.7 µM
[10]
  GI50: 14.5 µM
  TGI: 29.6 µM
[11]
  GI50: 25.3 µM
  TGI: > 100 µM
[12]
  GI50: 17 µM
  TGI: 58.8 µM
[13]
  GI50: 17.4 µM
  TGI: 61.8 µM
[14]
  GI50: 17.7 µM
  TGI: 58.4 µM
[15]
  GI50: 12 µM
  TGI: 34.6 µM
[16]
  GI50: 14.6 µM
  TGI: 35 µM
[17]
  GI50: 26.1 µM
  TGI: > 100 µM
[18]
  GI50: 21.7 µM
  TGI: > 100 µM
[19]
  GI50: 20.2 µM
  TGI: 58.1 µM
[20]
  GI50: 13.2 µM
  TGI: 27.3 µM
[21]
  GI50: 16.3 µM
  TGI: 43.1 µM
[22]
  GI50: 15.7 µM
  TGI: 34.8 µM
[23]
  GI50: 16.2 µM
  TGI: 58.4 µM
[24]
  GI50: 15 µM
  TGI: 40.8 µM
[25]
  GI50: 12.7 µM
  TGI: 28.8 µM
[26]
  GI50: 3540 nM
  TGI: 20.6 µM
[27]
  GI50: 20.3 µM
  TGI: 74.9 µM
[28]
  GI50: 17.6 µM
  TGI: 47.4 µM
[29]
  GI50: 18.3 µM
  TGI: 52 µM
[30]
  GI50: 17.8 µM
  TGI: 36.8 µM
[31]
  GI50: 15.2 µM
  TGI: 46.3 µM
[32]
  GI50: 14.9 µM
  TGI: 35.8 µM
[33]
  GI50: 12.5 µM
  TGI: 35 µM
[34]
  GI50: 25.6 µM
  TGI: > 100 µM
[35]
  GI50: 18.5 µM
  TGI: 66.7 µM
[36]
  GI50: 22 µM
  TGI: 72.3 µM
[37]
  GI50: 14.3 µM
  TGI: 72.9 µM
[38]
  GI50: 25.7 µM
  TGI: 91.3 µM
[39]
  GI50: 13.2 µM
  TGI: 34.3 µM
[40]
  GI50: 23.2 µM
  TGI: > 100 µM
[41]
  GI50: 18.2 µM
  TGI: 49.7 µM
[42]
  GI50: 18.1 µM
  TGI: 36 µM
[56]
  GI50: 14.8 µM
  TGI: 32.1 µM
[43]
  GI50: 18.2 µM
  TGI: 40.3 µM
[57]
  GI50: 15.2 µM
  TGI: 29.3 µM
[44]
  GI50: 20.8 µM
  TGI: 82.7 µM
[45]
  GI50: 13.7 µM
  TGI: 28.4 µM
[46]
  GI50: 30 µM
  TGI: > 100 µM
[58]
  GI50: 11 µM
  TGI: 71.3 µM
[47]
  GI50: 14.7 µM
  TGI: 53.5 µM
[48]
  GI50: 17.6 µM
  TGI: 51.2 µM
[49]
  GI50: 18.3 µM
  TGI: 74.1 µM
[50]
  GI50: 23.4 µM
  TGI: 87.9 µM
[51]
  GI50: 23 µM
  TGI: 64.8 µM
[59]
  GI50: 23.3 µM
  TGI: 79 µM
[52]
  GI50: 12.6 µM
  TGI: 27.8 µM
[53]
  GI50: 16.4 µM
  TGI: > 100 µM
